Laboratory results: patent publication US20240368168A1, “SARM1 ENZYME ACTIVITY INHIBITOR AND APPLICATION THEREOF” (ARTIVILA BIOPHARMA, priority 2021, published 2024)

Legend:
[1] = target: T1, dN-SARM1 protein (Homo sapiens, UniProt Q6SZW1); assay: In vitro biochemical assay for inhibiting SARM1 enzymatic activity (% inhibition rate), PC6 fluorescence method; details: 20 μM compound; 50 μM NAD, 50 μM PC6, 50 μM NMN activator
T1 construct: the N-terminal mitochondrial localization signal peptide of SARM1 was removed
T1 sequence (Q6SZW1 28-724): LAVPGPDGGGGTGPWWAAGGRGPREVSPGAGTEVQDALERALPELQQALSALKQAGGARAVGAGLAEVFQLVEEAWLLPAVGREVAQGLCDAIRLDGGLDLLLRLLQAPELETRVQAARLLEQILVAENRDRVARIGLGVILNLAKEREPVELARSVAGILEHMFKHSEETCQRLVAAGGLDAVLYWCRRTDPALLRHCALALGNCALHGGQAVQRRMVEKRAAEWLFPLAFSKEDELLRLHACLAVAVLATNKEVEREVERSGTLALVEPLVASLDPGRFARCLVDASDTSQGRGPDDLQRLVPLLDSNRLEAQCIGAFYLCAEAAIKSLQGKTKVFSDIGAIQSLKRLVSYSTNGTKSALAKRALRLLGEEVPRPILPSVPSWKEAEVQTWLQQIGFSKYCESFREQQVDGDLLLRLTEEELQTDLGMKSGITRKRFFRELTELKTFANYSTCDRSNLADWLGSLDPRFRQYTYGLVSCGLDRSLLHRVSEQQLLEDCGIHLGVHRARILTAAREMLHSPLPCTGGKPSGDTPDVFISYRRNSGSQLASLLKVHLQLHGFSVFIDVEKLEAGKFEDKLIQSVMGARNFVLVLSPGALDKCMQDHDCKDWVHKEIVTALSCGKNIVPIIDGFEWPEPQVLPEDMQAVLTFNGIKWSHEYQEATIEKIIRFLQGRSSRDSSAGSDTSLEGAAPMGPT
Procedure: The compounds were subjected to PC6 fluorescence method measurement [Chinese Patent 202010528147.3] using the dN-SARM1 protein obtained through “(4) Protein extraction” in “Expression and purification of SARM1 protein” in the above biological activity example 1.
First, 0.05 μg/ml dN-SARM1 and 20 μM compound were incubated in 50 mM Tris-HCl (pH 7.5) solution for 10 min, and then added with 50 μM NAD and 50 μM PC6 as substrate and 50 μM NMN as activator for 30 minutes of reaction at room temperature. The concentration of each component was the final concentration in the reaction system.
During the reaction, PC6 fluorescence spectrum dynamics were detected by a microplate reader, wherein the excitation wavelength and emission wavelength for detection were 390 nm and 520 nm, respectively. Finally, the reaction rate was used to express the activity of the protein. The higher the reaction rate, the stronger the activity of the protein and the lower the inhibitory efficiency of the compound.

[2] = target: T1, dN-SARM1 protein; assay: In vitro biochemical assay for inhibiting SARM1 enzymatic activity (IC50), PC6 fluorescence method; details: 50 μM NAD, 50 μM PC6, 50 μM NMN activator
How it was run: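 dN-SARM1 (0.05 μg/ml, 50 mM Tris-HCl pH 7.5) preincubated 10 min at room temperature with compound in serial dilution from 200 μM. Reaction started with final 50 μM NAD, 50 μM PC6 substrate and 50 μM NMN activator, 30 min at room temperature. PC6 fluorescence (ex 390/em 520 nm) rate gives activity; IC50 derived.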

[3] = target: T2, SARM1 protein in iSARM1 (HEK293) cells (Homo sapiens, UniProt Q6SZW1); assay: Inhibitory activity in inducible SARM1 overexpressing cell line, intracellular cADPR level; type: cell-based; details: activator CZ-48 100 μM, cADPR content
T2 construct: The full-length SARM1 was synthesized into the pUC57 plasmid by WZ Biosciences Inc., and PCR was performed using pUC57-SARM1 as a DNA template
T2 sequence (Q6SZW1 28-724): T1 sequence (Q6SZW1 28-724)
How it was run: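 Inducible SARM1-overexpressing HEK293 cells preincubated 1.5 h with inhibitor (50 μM final), then activated with 100 μM CZ-48 for 16 h. Intracellular cADPR extracted with perchloric acid, NAD+ removed by NADase, and quantified by cyclase-coupled resazurin cycling assay (Ex/Em 544/599, 30 min kinetics) against cADPR standards; inhibition rate and IC50 calculated.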

Compound | inhibition at 20 µM [1] | IC50 [2] | EC50 [3]
CNc1ccc2ncc(-c3ccccc3)n2n1 [Compound 20] | 50 to 89% | < 1000 nM | 1000 to 10000 nM
FC(F)(F)c1ccc2ncc(-c3ccccc3)n2c1 [Compound 25] | > 90% | 1000 to 10000 nM | 1000 to 10000 nM
c1cn2cc(N3CCOCC3)ccc2n1 [Compound 32] | > 90% | 1000 to 10000 nM | 1000 to 10000 nM
Brc1cnc2ccc(N3CCOCC3)cn12 [Compound 33] | > 90% | 1000 to 10000 nM | 1000 to 10000 nM
c1ccc(-c2cnc3ccc(N4CCOCC4)cn23)cc1 [Compound 34] | > 90% | 1000 to 10000 nM | 1000 to 10000 nM
CN(C(=O)OC(C)(C)C)c1ccc2ncc(-c3ccc(N)cc3)n2c1 [Compound 40] | > 90% | 1000 to 10000 nM | 1000 to 10000 nM
CC(C)(C)OC(=O)Nc1ccc2ncc(I)n2c1 [Compound 44] | 50 to 89% | 1000 to 10000 nM | 1000 to 10000 nM
CN(C(=O)OC(C)(C)C)c1ccc2ncc(-c3cccc(NC(=O)C4CCOCC4)c3)n2c1 [Compound 49] | > 90% | 1000 to 10000 nM | < 1000 nM
COCCOCC(=O)Nc1ccc(-c2cnc3ccc(N(C)C(=O)OC(C)(C)C)cn23)cc1 [Compound 50] | > 90% | 1000 to 10000 nM | 1000 to 10000 nM
c1ccc(Nc2ccc3ncc(-c4ccccc4)n3c2)cc1 [Compound 75] | > 90% | 1000 to 10000 nM | < 1000 nM
CNc1ccc2ncc(-c3cccc(NC(=O)COCCOCC(=O)Nc4cccc(-c5cnc6ccc(NC)cn56)c4)c3)n2c1 [Compound 78] | > 90% | < 1000 nM | 1000 to 10000 nM
CNc1ccc2ncc(-c3cccc(NC(=O)COCCOCCOCC(=O)Nc4cccc(-c5cnc6ccc(NC)cn56)c4)c3)n2c1 [Compound 79] | > 90% | < 1000 nM | 1000 to 10000 nM
CC(C)(C)OC(=O)N(c1ccccc1)c1ccc2ncc(-c3ccccc3)n2c1 [Compound 90] | > 90% | 1000 to 10000 nM | 1000 to 10000 nM
CNc1ccc2ncc(C(=O)Nc3ccccc3)n2c1 [Compound 105, 6-(methylamino)-N-phenylimidazo[1,2-a]pyridin-3-carboxamide] | > 90% | 1000 to 10000 nM | 1000 to 10000 nM
CN(C(=O)OC(C)(C)C)c1ccc2ncc(-c3cccc(NC(=O)COCCOCCOCC(=O)Nc4cccc5c4CN(C4CCC(=O)NC4=O)C5=O)c3)n2c1 (stereo not shown) [Compound 115, tert-butyl (3-(3-(2-(2-(2-(2-((2-(2,6-dioxopiperidin-3-yl))-1-oxoisoindolin-4-yl)amino)-2-oxoethoxy)ethoxy)ethoxy)acetamido)phenyl)imidazo[1,2-a]pyridin-6-yl)(methyl) carbamate] | > 90% | < 1000 nM | 1000 to 10000 nM
CC(C)(C)OC(=O)Nc1ccc2ncc(-c3cccc(NC(=O)COCCOCC(=O)Nc4cccc(-c5cnc6ccc(NC(=O)OC(C)(C)C)cn56)c4)c3)n2c1 [Compound 122] | > 90% | < 1000 nM | < 1000 nM
CC(C)(C)OC(=O)Nc1ccc2ncc(-c3cccc(NC(=O)COCCOCCOCC(=O)Nc4cccc(-c5cnc6ccc(NC(=O)OC(C)(C)C)cn56)c4)c3)n2c1 [Compound 123] | > 90% | < 1000 nM | < 1000 nM

Compound | inhibition at 20 µM [1] | IC50 [2] | EC50 [3]
COCCOCC(=O)Nc1cccc(-c2cnc3ccc(NC(=O)C4CC4)cn23)c1 [Compound 129, N-(3-(3-(2-(2-methoxyethoxy)acetamido)phenyl)imidazo[1,2-a]pyridin-6-yl)cyclopropanecarboxamide] | > 90% | < 1000 nM | 1000 to 10000 nM
COCCOCC(=O)Nc1cccc(-c2cnc3ccc(NC(=O)C(C)(C)C)cn23)c1 [Compound 130] | > 90% | < 1000 nM | 1000 to 10000 nM
COCCOCC(=O)Nc1cccc(-c2cnc3ccc(NC(=O)COC)cn23)c1 [Compound 131] | > 90% | 1000 to 10000 nM | –
CN(C(=O)OC(C)(C)C)c1ccc2ncc(-c3cccc(C(=O)O)c3)n2c1 [Compound 132, 3-(6-((tert-butoxycarbonyl)(methyl)amino)imidazo[1,2-a]pyridin-3-yl)benzoic acid] | > 90% | 1000 to 10000 nM | –
CNc1ccc2ncc(-c3cccc(C(=O)NCCOCCOC)c3)n2c1 [Compound 134] | > 90% | < 1000 nM | –
CNc1ccc2ncc(-c3cccc(C(=O)NC4CCOCC4)c3)n2c1 [Compound 136] | > 90% | < 1000 nM | –
CC(C)(C)OC(=O)NCc1ccc2ncc(I)n2c1 [Compound 143] | > 90% | 1000 to 10000 nM | –
CC(C)(C)OC(=O)NCc1ccc2ncc(-c3cccc(N)c3)n2c1 [Compound 144] | > 90% | < 1000 nM | –
COCCOCC(=O)Nc1cccc(-c2cnc3ccc(CNC(=O)OC(C)(C)C)cn23)c1 [Compound 145] | > 90% | < 1000 nM | –
COCCOCC(=O)Nc1cccc(-c2cnc3ccc(CNC(=O)C(C)(C)C)cn23)c1 [Compound 146] | > 90% | 1000 to 10000 nM | –
CN(C(=O)OC(C)(C)C)c1ccc2ncc(-c3cccc(NC(=O)C4CCOC4)c3)n2c1 (stereo not shown) [Compound 149] | > 90% | 1000 to 10000 nM | –
CN(C(=O)OC(C)(C)C)c1ccc2ncc(-c3cccc(NC(=O)C4COC4)c3)n2c1 [Compound 150] | > 90% | 1000 to 10000 nM | –
CCOC(=O)CCC(=O)Nc1cccc(-c2cnc3ccc(N(C)C(=O)OC(C)(C)C)cn23)c1 [Compound 151] | > 90% | 1000 to 10000 nM | –
CN(C(=O)OC(C)(C)C)c1ccc2ncc(-c3cccc(NC(=O)NC[C@@H]4CCO4)c3)n2c1 [Compound 152] | > 90% | 1000 to 10000 nM | –
CNc1ccc2ncc(-c3cccc(OCCOCCOC)c3)n2c1 [Compound 153] | > 90% | 1000 to 10000 nM | –
CNc1ccc2ncc(-c3cccc(OCC4CCOCC4)c3)n2c1 [Compound 154] | > 90% | < 1000 nM | –
